# Results from patent publication US9381193B2, “Contraceptive methods and compositions” (WASHINGTON UNIVERSITY, priority 2011, dated 2016).
# Experiments:
# murine ESCs = assay: In vitro decidualization of primary murine ESCs (Prp mRNA); type: cell-based, mouse; settings: 3 days in vitro culture
# From the text: (§1) In order to confirm that this is not a side effect of ESC immortalization with telomerase overexpression in this human cell line, the effect of DHEA on decidualization of primary ESC cultures from mouse and human uteri was also investigated. Murine ESCs were isolated from the gravid uterus at 4 days post coitus and cultured in vitro for 3 days to induce decidualization as described in the Methods. […] The human primary ESCs were isolated from uteri following hysterectomy for benign disease as outlined in the Methods and cultured in decidualization media for 9 days.
# For in vitro decidualization of ESCs, female mice were sacrificed at 4dpc. Pregnancy was confirmed by flushing dissected uterine horns and ostia with HBSS and observing for presence of blastocysts. Uteri confirmed for pregnancy were cut into 1 mm^3 pieces and incubated in Dulbecco's modified Eagle's Medium:F12 medium (DMEM:F12) without phenol red supplemented with 2 g/liter Collagenase Type I (Gibco) for 60-90 min at 37° C. Tissues were vortexed every 15 min during incubation. Following incubation, the solution was passed through a 40 μm sieve (BD Falcon) and centrifuged at 1100 rpm for 5 min. […]
# human primary ESCs = assay: In vitro decidualization of human primary ESCs (decidualization marker mRNA); type: cell-based; settings: 9 days in decidualization media
# From the text: as §1
# Control samples received 0.1% ethanol vehicle control.
# [1] = Artificially induced deciduoma in ovariectomized mice; type: in vivo, mouse; settings: female, FVB/NJ, mouse, serum, subcutaneous, 2 mg/100 g of body weight; measured on day +5; DHEA-treated group; read-out: Serum DHEA levels
# Method: (§2) This induced deciduoma model allowed the study of the effect of increased DHEA on implantation independently of embryo development and ovarian function. Female mice 6-8 weeks of age were ovariectomized and rested for 2 weeks. […] At day 2 before induction, the experimental mice also began receiving DHEA at 2 mg/100 g of body weight. The control mice received no DHEA. At day 0, one uterine horn in each animal was subjected to a physical stimulus, 100 μL sesame seed oil injection, to induce a deciduoma. The second horn was left as the unstimulated internal control for each mouse. Day 0 in this case is equivalent to the day of embryo implantation in a physiological mouse pregnancy, which is 4 days post coitus. Five days after the oil injection, uterine horns were dissected out. First the gross anatomies of the uteri were assessed. Representative tissues from two mice in each treatment group are shown (FIG. 7B). […] Protein was isolated from all uterine horns in order to measure the expression of a well-established decidualization protein marker, Bmp2. […] Bmp2 expression was almost undetectable in the unstimulated uterine horns. […] In the same line of experiments, the serum hormone levels were also measured to confirm that findings were strictly the result of increased levels of DHEA.
# (§3) Decidualization in vivo under chronically elevated levels of DHEA was also tested. The ovariectomy mouse model described above was used with the following changes: DHEA was administered orally (0.6% supplementation in regular chow diet) starting on the day of ovariectomy. The mice were on the diet for 2 weeks prior to the beginning of the hormone regiments described in FIG. 7A. In FIG. 8A, representative uterine horns are shown from control mice (receiving regular chow) and the treatment mice on 0.6% DHEA diet. […] A quantitative analysis of the decidual reaction in shown in FIG. 8B, where the mass of the uterine horns is shown. Lastly, it should be noted that ovariectomised mice, similar to post-menopausal women, tend to have increased body fat percentage.
# (§4) To generate deciduomas 7-8 wk-old female FVB/NJ mice were used and treated as described previously. A time line of the hormone administrations is presented in FIG. 7a, adapted from Herington et al. Briefly, mice were ovariectomized and allowed 2 weeks for recovery. They were then injected with 100 ng 17b-estradiol (E2) (Sigma) for three days, rested two days, and then injected with 10 ng E2/1 μg Progesterone (P4, Sigma) for three days. […] Immediately following the last of the above sensitization injections, the right uterine horn received an intra-luminal injection of 100 μL of sunflower seed oil. Mice continued to receive 1 μg P4 subcutaneously for up to 4 days. Mice receiving the DHEA treatment received […] starting on the day the E2/P4 injections were begun and continued for the 7 days following, until mice were sacrificed. On the day following the last injection, serum samples were collected, the mice were sacrificed and uterine horns dissected out. Serum DHEA, E2 and P4 levels were analyzed by ELISA assays (Alpco Immunoassays).
# FVB/NJ mice = assay: as above; type: in vivo, mouse
# Method: as §2, §3, §4
# denuded GV oocytes = assay: ATP and citrate levels in single denuded GV oocytes of DHEA-fed mice; type: in vivo, mouse
# From the text: COCs were collected following superovulation with PMSG. Ovaries were removed and placed in M2 media (Sigma, St. Louis, Mo., USA). COCs were obtained by rupture of antral follicles with a syringe and needle. To collect denuded germinal vesicle (GV) oocytes, the cumulus cells were removed by gentle pipetting. The oviducts were removed from PMSG- and hCG-primed mice. The ampulla of the oviduct was punctured to release the clutch of ovulated oocytes 24 hr after hCG.
# Denuded oocytes or cultured blastocysts were frozen on a glass slide with liquid nitrogen and dried overnight at −35° C. under vacuum. Individual oocytes or blastocysts were extracted in nanoliter volume under oil. Assays were designed to measure ATP, citrate and G6PDH by linking with NAD/NADH or NADP/NADPH which are enzymatically amplified in a cycling reaction allowing products to be measured by fluorometry.
# embryos = assay: Transfer of blastocysts cultured in DHEA to pseudopregnant females; type: in vivo, mouse
# Method: Mice were superovulated and mated with males of known fertility. Forty-five hours after injection with hCG, the oviducts were removed. Two-cell embryos were collected by flushing the oviducts with human tubal fluid media (HTF) with 0.25% BSA. Embryos were cultured in HTF with BSA and either DMSO, 10 μM DHEA or 100 μM DHEA for 72 hours. In vitro cultured blastocysts were transferred to 2.5 days postcoitus (dpc) pseudopregnant ICR females. Resulting embryos and placentas were collected at 14.5 dpc and fixed with Bouin's solution, embedded in paraffin and sectioned.
# oocytes from rats = settings: DHEA 1 mg/100 g or 10 mg/100 g body weight, increased with dose and treatment duration; cited from earlier work
compound,measurement,setting,value
"C[C@]12CC[C@H](O)CC1=CC[C@@H]1[C@@H]2CC[C@]2(C)C(=O)CC[C@@H]12 [DHEA, dehydroepiandrosterone]",Prp mRNA expression,murine ESCs,decreased upon addition of DHEA in a concentration-dependent manner
same,Expression of PRL and IGFBP1,human primary ESCs,decreased in a concentration dependent manner
same,concentration at 5 day (after oil injection on day 0),[1],32.6 ng/mL
same,Deciduoma formation under chronic DHEA,"FVB/NJ mice; 0.6% DHEA in chow, oral, from day of ovariectomy",no difference between the stimulated and unstimulated uterine horns
same,Decrease in Bmp2 protein induction in deciduomas vs control mice (Western blot),FVB/NJ mice; DHEA 2 mg/100 g of body weight,3 fold
same,Decrease in the decidual response by uterine mass vs controls,FVB/NJ mice; DHEA 2 mg/100 g of body weight,~3 fold
same,Morphology of uterine cross sections of stimulated horns,FVB/NJ mice; DHEA 2 mg/100 g of body weight,no decidual cells
same,Gross deciduoma formation along the stimulated uterine horn,"FVB/NJ mice; DHEA 2 mg/100 g of body weight from day 2 before induction, 5 days after oil injection","weak, if any, deciduoma formation"
same,"Citrate, of control",denuded GV oocytes; 0.01% DHEA group,90%
same,Citrate compared to control,denuded GV oocytes; 0.1% DHEA group,83%
same,Anomalies in the fetuses or abnormal placental histology,embryos,did not lead to increased anomalies
same,Fetus size at 14.5 dpc,embryos,significantly smaller fetuses
same,Placenta size at 14.5 dpc,embryos; p=0.054,smaller placentas
same,Percentage of degenerated oocytes,oocytes from rats,≤ 70%
